Data: PubChem BioAssay AID1645848
≈ marks a conversion by molar mass, not a printed value.

Settings: buffer; pH 7.4; 6.0 h; 150.0 µM

Molecule `FC(F)(F)c1ccccc1-c1nc(NCc2cccs2)c2ccccc2n1` has a solubility kinetic of less than 1 µg/mL.

`Cc1ccc(Nc2nc(NCCO)c3ccccc3n2)cc1C.Cl` showed a solubility kinetic of 28.1 µg/mL.

With `CCOc1ccc(CCNC(=O)c2cc3ccncc3n2Cc2cccc(C)c2)cc1OCC` the solubility kinetic was 55.7 µg/mL (≈ 122 µM).

In the case of `CC(C)NC(=O)N1C[C@@H]2C[C@H](C1)c1ccc(-c3cccc(C(F)(F)F)c3)c(=O)n1C2`, the solubility kinetic is reported as greater than 93 µg/mL.

For `CCOc1ccc(-c2csc(N3CCC(C(N)=O)CC3)n2)cc1`, the solubility kinetic was 11 µg/mL (≈ 33.2 µM).

Work on `Cc1ncc2c(c1CNC(=O)Cn1cnc3ccccc3c1=O)CCNC2` yielded a solubility kinetic of 28.1 µg/mL (≈ 77.2 µM).

Work on `COc1cccc(-n2nc(C(=O)O)cc2-c2ccc(C3CCCCC3)c(Cl)c2)c1` yielded a solubility kinetic of 15.2 µg/mL (≈ 37.1 µM).

With `NC(=O)C1CCN(c2nccc(-c3ccc4c(c3)OCCCO4)n2)CC1` the solubility kinetic was 44.2 µg/mL (≈ 125 µM).

Work on `CNc1cc(-c2nc(Nc3ccc(F)c(F)c3)c3ccccc3n2)ccn1` yielded a solubility kinetic of less than 1 µg/mL.

For `COc1ccc(-c2ccc3ncc(Nc4ccncc4)n3n2)cc1OC`, the solubility kinetic was 31.9 µg/mL (≈ 91.9 µM).

`Cc1ccc(S(=O)(=O)Nc2cnccc2C(=O)Nc2ccc(C#N)cc2)cc1` showed a solubility kinetic greater than 58 µg/mL.

In the case of `COc1ccc(S(=O)(=O)N2CCCCCC2)cc1NC(=O)Cc1n[nH]c(=O)c2ccccc12`, the solubility kinetic is reported as 8.46 µg/mL (≈ 18 µM).

In the case of `Cc1cccc(N2CCN(C(=O)c3ccc4c(c3)C(O)CCCCCN4C)CC2)c1` (stereo unspecified), the solubility kinetic is reported as 14.8 µg/mL (≈ 36.3 µM).

For `COc1ccc(NC(=O)c2c(C)cccc2C)cc1[S+](=O)([O-])N1CCCCCC1`, the solubility kinetic was 15.8 µg/mL (≈ 37.9 µM).

For `NC(=O)NCC(=O)N[C@H]1CC[C@H](Nc2nccc(-c3ccncc3)n2)C1`, the solubility kinetic was greater than 35 µg/mL.

Work on `COc1cc(-c2nc(Nc3ccc(F)c(F)c3)c3ccccc3n2)c(F)cn1` yielded a solubility kinetic of less than 1 µg/mL.

With `CCOc1ccc(CCNC(=O)c2ccc(C(=O)c3ccccc3)cc2)cc1OCC` the solubility kinetic was less than 1 µg/mL.

Molecule `CCS(=O)(=O)c1cccc(C(=O)Nc2ccc(-c3nc4ccccc4s3)c(O)c2)c1` has a solubility kinetic of less than 1 µg/mL.

Work on `COC(=O)CNC(=O)c1nc(-c2ccc([S+](C)(=O)[O-])cc2)c2cnccn12` yielded a solubility kinetic greater than 57 µg/mL.

For `CN(Cc1cccs1)c1ncnc2ccc(-c3ccc4c(c3)OCO4)cc12`, the solubility kinetic was less than 1 µg/mL.

Molecule `CCc1oc2ccccc2c1C(=O)c1cc(Br)c(O)c(Br)c1` has a solubility kinetic greater than 62 µg/mL.

`Brc1ccccc1-c1nc(NCc2ccc(-c3cccnc3)cc2)c2ccccc2n1` showed a solubility kinetic of less than 1 µg/mL.

With `COc1ccc(-n2nc(C3CCCN([S+](=O)([O-])c4cccc(C(F)(F)F)c4)C3)[nH]c2=O)cc1` (stereo unspecified) the solubility kinetic was less than 1 µg/mL.

`O=C(NC1CCCc2c1cnn2-c1ccc(F)cc1F)c1ccccc1` (stereo unspecified) gave a solubility kinetic of 4.29 µg/mL (≈ 12.1 µM).

In the case of `CC(C)(C)OC(=O)N[C@@H](Cc1ccc(O[S+](=O)([O-])c2cccc3cnccc23)cc1)C(=O)Nc1ccc(-c2ccccc2)cc1`, the solubility kinetic is reported as less than 1 µg/mL.

`COc1ccccc1-c1[nH]nc2ncc(-c3ccc(C)cc3)nc12` gave a solubility kinetic of less than 1 µg/mL.

In the case of `CCc1ccccc1OC[C@@H](O)CN[C@H]1CCCc2ccccc21`, the solubility kinetic is reported as 36 µg/mL (≈ 111 µM).

In the case of `Nc1c(-c2ccncc2)cc[nH]c1=O`, the solubility kinetic is reported as 11.8 µg/mL (≈ 63.1 µM).

Work on `NC(=O)C1CCN(c2nc(-c3ccc(Oc4ccccc4)cc3)cs2)CC1` yielded a solubility kinetic of less than 1 µg/mL.

With `COCCn1ccc2c(C3=CCOCC3)nc(-c3ccc4c(c3)CNC4=O)cc21` the solubility kinetic was greater than 86 µg/mL.

In the case of `COc1ccccc1OCCNCC(O)COc1cccc2[nH]c3ccccc3c12` (stereo unspecified), the solubility kinetic is reported as greater than 60 µg/mL.

Molecule `CCOc1ccc(CCNC(=O)c2cc3cnccc3n2Cc2cccc(C)n2)cc1OCC` has a solubility kinetic greater than 68 µg/mL.

`O=C(Nc1ccc(Cl)cc1Cl)c1cnc2ccccc2n1` showed a solubility kinetic of less than 1 µg/mL.

`COc1ccc(-c2cn[nH]c2-c2ccc(OC)cc2)cc1` gave a solubility kinetic of 4.26 µg/mL (≈ 15.2 µM).

`COc1cccc(CNc2ccc(S(=O)(=O)Nc3ccc(N4CCNCC4)nc3)cc2)c1O` showed a solubility kinetic of 55.9 µg/mL (≈ 119 µM).

Molecule `CCOC(=O)c1ccc(N2C(=O)c3[nH]nc(-c4ccc(OC)cc4)c3C2c2ccc(C)cc2)cc1` (stereo unspecified) has a solubility kinetic of less than 1 µg/mL.
